Experimental data published in article PMC9154793, “Design, synthesis, and biological evaluation of triazole-pyrimidine-methylbenzonitrile derivatives as dual A2A/A2B adenosine receptor antagonists” (Journal of Enzyme Inhibition and Medicinal Chemistry, 2022).

How the values were obtained:
human A2B AR = molecular target: T1, human A2B AR (Homo sapiens, UniProt P29275); assay: cAMP functional assay in CHO-K1/ADORA2b/Gα15 cells (NECA-stimulated, HTRF); type: cell-based; settings: for inhibition at 0.1 µM: compound at 100 nM, relative to ZM241385 at 1 μM, read-out: hA2B AR (%) inhibition of cAMP, 100 nM
T1 sequence (P29275 1-332): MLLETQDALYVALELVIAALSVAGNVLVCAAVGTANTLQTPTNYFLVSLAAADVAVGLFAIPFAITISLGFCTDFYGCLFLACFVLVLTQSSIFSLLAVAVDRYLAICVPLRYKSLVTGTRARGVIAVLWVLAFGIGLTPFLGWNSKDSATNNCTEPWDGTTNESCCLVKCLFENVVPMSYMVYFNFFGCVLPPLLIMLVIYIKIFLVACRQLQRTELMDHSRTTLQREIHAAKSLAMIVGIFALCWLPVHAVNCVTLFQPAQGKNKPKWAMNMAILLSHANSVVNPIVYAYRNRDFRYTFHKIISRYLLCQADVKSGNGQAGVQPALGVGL
Description: (§1) In the cAMP assay, CHO-K1/ADORA2A/Gα15 cells expressing human A2A AR and CHO-K1/ADORA2b/Gα15 cells expressing human A2B AR were activated by 5′-(N-ethylcarboxamido)adenosine (NECA) and triggered the accumulation of intracellular cAMP concentration.
(§2) CHO-K1/ADORA2A/Gα15 cells expressing human A2A AR and CHO-K1/ADORA2b/Gα15 cells expressing human A2B AR were both constructed by Genscript Biotech Corporation. […] The test stock solutions were diluted with different gradients for use. The procedure was exemplified by the cAMP functional assay on the A2A receptor: 10,000 cells/well of CHO-K1/ADORA2A/Gα15 were seeded in a 384-well plate in 20 μl of assay buffer. […] Then, 10 μl of detection reagent (cAMP-d2 and anti-cAMP-Eu3+) was added into each well of the plate and incubated at room temperature for 1 h.

human A2A AR [1] = molecular target: T2, human A2A AR (Homo sapiens, UniProt P29274); assay: cAMP functional assay in CHO-K1/ADORA2A/Gα15 cells (NECA-stimulated, HTRF); type: cell-based; settings: for IC50: CHO cells expressing hA2A AR, read-out: cAMP IC50 hA2A AR; for IC50 / inhibition at 0.01 µM / inhibition at 0.1 µM / inhibition at 1 µM: mean ± SEM; for inhibition at 0.01 µM / inhibition at 0.1 µM / inhibition at 1 µM: CHO-K1, relative to ZM241385 at 1 μM; for inhibition at 0.01 µM: compound at 10 nM, read-out: hA2A AR (%) inhibition of cAMP, 10 nM; for inhibition at 0.1 µM: compound at 100 nM, read-out: hA2A AR (%) inhibition of cAMP, 100 nM; for inhibition at 1 µM: compound at 1000 nM, read-out: hA2A AR (%) inhibition of cAMP, 1000 nM;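 as to all read-outs here: inhibition of NECA-driven intracellular cAMP build-up in the A2A-expressing cells, quantified with cAMP-d2 plus Eu3+-labelled anti-cAMP detection reagent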
Description: as §1, §2

human A2A AR [2] = molecular target: T2, human A2A AR; assay: A2A AR radioligand binding assay ([3H]-ZM241385, HEK-293 cell membranes); settings: hA2A AR, HEK-293 membranes, [3H]-ZM241385; mean ± SEM; read-out: Radioligand binding assays IC50
Description: We further tested the IC50 values of compounds 7f, 7i, 17, 22, and AB928 in inhibiting the cAMP production of CHO cells expressing hA2A AR or hA2B AR (Table 2). […] In addition, the competitive binding experiments of compounds 7f, 7i, and AB928 were performed using membrane preparation of HEK-293 cells expressing human A2A AR (Table 3).
The target compounds were tested to evaluate their affinity for the A2A AR on HEK-293 cell membranes expressing human A2A AR. [^3H]-ZM241385 was used as a radioligand. The assay buffer (50 mM Tris-HCl, pH 7.4; 10 mM MgCl2; 1 mM EDTA; 1 μg/ml adenosine deaminase), wash buffer (50 mM Tris-HCl, pH 7.4; 154 mM NaCl), and 0.5% PEI solution were prepared and stored at 4 °C for use. The affinities were tested following the procedure reported by Hu et al[4].

T2 sequence (P29274 whole entry): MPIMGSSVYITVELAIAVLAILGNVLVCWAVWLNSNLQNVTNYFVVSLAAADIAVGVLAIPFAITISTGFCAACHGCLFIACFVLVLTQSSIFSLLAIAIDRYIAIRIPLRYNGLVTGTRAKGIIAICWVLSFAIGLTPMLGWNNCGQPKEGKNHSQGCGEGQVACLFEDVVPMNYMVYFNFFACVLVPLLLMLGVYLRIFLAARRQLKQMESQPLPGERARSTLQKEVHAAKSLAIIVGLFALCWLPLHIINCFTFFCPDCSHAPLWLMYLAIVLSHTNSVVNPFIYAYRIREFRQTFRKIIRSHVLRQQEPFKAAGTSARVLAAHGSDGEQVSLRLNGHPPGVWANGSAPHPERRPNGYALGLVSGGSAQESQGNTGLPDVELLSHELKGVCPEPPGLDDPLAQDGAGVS

inhibition at 0.01 µM (human A2B AR; CHO-K1, compound at 10 nM, mean ± SEM, read-out: hA2B AR percentage of inhibition (I%) of cAMP, 10 nM (converted)) [%]	inhibition at 0.1 µM (human A2B AR; CHO-K1, mean ± SEM) [%]	melting point [°C]	IC50 (human A2A AR [1]) [nM]	inhibition at 0.01 µM (human A2A AR [1]) [%]	inhibition at 0.1 µM (human A2A AR [1]) [%]	inhibition at 1 µM (human A2A AR [1]) [%]	fold less active than compound 7i (cAMP IC50, A2A receptor) (human A2A AR [1]; ratio of cAMP IC50 values vs 7i) [fold]	IC50 (human A2A AR [2]) [nM]	IC50 (human A2B AR; CHO cells expressing hA2B AR, mean ± SEM, read-out: cAMP IC50 hA2B AR) [nM]	fold more active than AB928 (cAMP IC50, A2B AR) (human A2B AR; ratio of cAMP IC50 values vs AB928) [fold]	Compound
10.8	102.6 ± 0.24	147 to 148	24.04 ± 0.06	54.9 ± 1.19	84.2 ± 2.94	92.41 ± 0.43	4	158 ± 56.4	–	–	Cc1c(C#N)cccc1-c1cc(-c2cn(Cc3cccc(C#N)n3)nn2)nc(N)n1 [Compound 7f, 6-((4-(2-Amino-6-(3-cyano-2-methylphenyl)pyrimidin-4-yl)-1H-1,2,3-triazol-1-yl)methyl)picolinonitrile]
–	103.3 ± 0.63	151 to 152	6.007 ± 0.05	32.7 ± 1.8	95.9 ± 3.36	103 ± 2.82	–	63.6 ± 13	14.1 ± 2.05	1.8	Cc1c(C#N)cccc1-c1cc(-c2cn(Cc3cccc(C(N)=O)n3)nn2)nc(N)n1 [Compound 7i, 6-((4-(2-Amino-6-(3-cyano-2-methylphenyl)pyrimidin-4-yl)-1H-1,2,3-triazol-1-yl)methyl)picolinamide]
